Measurements as given in patent publication US8648101B2, “Nematicidal agent composition and method of using the same” (Nihon Nohyaku Co., Ltd., priority 2007, dated 2014).

Tests used:
[1] = test system: southern root-knot nematode (Meloidogyne incognita); assay: Nematocidal test on the southern root-knot nematode, pot-grown melon seedlings; assay type: in vivo; design: key: A: no root knots.; B: root knots are present but their number is definitely smaller than that for untreated plot.; C: root knots are present in an equivalent number to or a larger number than that for untreated plot; conditions: 30 ppm emulsion dilution, 1 ml injected at foot of melon seedlings; 8 days after inoculation
Protocol: Nematocidal Test on the Southern Root-Knot Nematode (Meloidogyne incognita)
An emulsion comprising each compound listed in Table 1 as an active ingredient was prepared as directed in Preparation Example 1, and diluted to obtain active ingredient concentrations of 300 ppm and 30 ppm. Each of these dilutions (1 ml) was applied to the foots of pot-grown melon seedlings by injection; 1 day after application of the dilution, an aqueous suspension of southern root-knot nematodes (about 500 nematodes/ml) was inoculated (soil injection), to a treated plot and an untreated plot and the pots were placed in a 25° C. greenhouse. Eight days after the inoculation, the roots were washed with water and examined for the number of root knots, and the effects were determined according to the following rating criteria.
• A: no root knots. • B: root knots are present but their number is definitely smaller than that for untreated plot. • C: root knots are present in an equivalent number to or a larger number than that for untreated plot.

[2] = test system: soybean cyst nematode (Heterodera grycines); assay: Nematocidal test on the soybean cyst nematode, treated soil with soybean; assay type: in vivo; design: key: A: no cysts.; B: cysts are present but their number is definitely smaller than that for untreated plot.; C: cysts are present in an equivalent number to or a larger number than that for untreated plot; conditions: 7.5 mg wettable powder (1.5 mg active ingredient per kg soil); 40 days after seeding
Protocol: Nematocidal Test on the Soybean Cyst Nematode (Heterodera grycines)
A wettable powder comprising each compound listed in Table 1 as an active ingredient was prepared as directed in Preparation Example 4, and 75 mg and 7.5 mg were weighed out so that the active ingredient content would be 15 mg and 1.5 mg per kg soil; these agents were mixed in soil (1000 g) contaminated with soybean cyst nematodes in a plastic bag. The treated soil was filled in pots, soybean seeds were sown, and the pots were placed in a glass greenhouse. Forty days after the seeding, the soil on the roots was put down, the number of cysts was examined, and the effect was determined according to the rating criteria shown below.
• A: no cysts. • B: cysts are present but their number is definitely smaller than that for untreated plot. • C: cysts are present in an equivalent number to or a larger number than that for untreated plot.

O=C(NCCc1ncc(C(F)(F)F)cc1Cl)c1ccccc1C(F)(F)F [Compound 7, N-[2-(3-chloro-5-trifluoromethylpyridin-2-yl)ethyl]-2-trifluoromethylbenzamide]
rating (number of root knots) [1]: A
rating (number of cysts) [2]: A
